# Laboratory results from PubChem BioAssay AID2060502 (Molecular Pharmacology Branch, DTP, NCI, 2025).
# Test system: 885724-159-R-J1-PDC complex spheroid viability
# Assay: Anticancer human tumor 885724-159-R-J1-PDC patient-derived pancreatic adenocarcinoma cell line growth inhibition [GQUAD]
# Settings: for IC50: curve of first compound; for viability, T/C: stronger effect = lower value
# Outline: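 Multi-cell-type spheroids of tumor cells with HUVEC and mesenchymal stem cells, treated with drug combinations. Concentrations descend in half-log steps from near clinical Cmax, or from 10 microM where Cmax is unknown; viability read-out.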
# [1] = second compound 0.0316 µM, first compound 0.0316 µM
# [2] = second compound 0.0316 µM, first compound 0.1 µM
# [3] = second compound 0.0316 µM, first compound 0.316 µM
# [4] = second compound 0.0316 µM, first compound 1 µM
# [5] = second compound 0.0316 µM, first compound 3.16 µM
# [6] = second compound 0.0316 µM, first compound 10 µM
# [7] = second compound 0.1 µM, first compound 0.0316 µM
# [8] = second compound 0.1 µM, first compound 0.1 µM
# [9] = second compound 0.1 µM, first compound 0.316 µM
# [10] = second compound 0.1 µM, first compound 1 µM
# [11] = second compound 0.1 µM, first compound 3.16 µM
# [12] = second compound 0.1 µM, first compound 10 µM
# [13] = second compound 0.316 µM, first compound 0.0316 µM
# [14] = second compound 0.316 µM, first compound 0.1 µM
# [15] = second compound 0.316 µM, first compound 0.316 µM
# [16] = second compound 0.316 µM, first compound 1 µM
# [17] = second compound 0.316 µM, first compound 3.16 µM
# [18] = second compound 0.316 µM, first compound 10 µM
# [19] = second compound 1 µM, first compound 0.0316 µM
# [20] = second compound 1 µM, first compound 0.1 µM
# [21] = second compound 1 µM, first compound 0.316 µM
# [22] = second compound 1 µM, first compound 1 µM
# [23] = second compound 1 µM, first compound 3.16 µM
# [24] = second compound 1 µM, first compound 10 µM
# [25] = second compound 3.16 µM, first compound 0.0316 µM
# [26] = second compound 3.16 µM, first compound 0.1 µM
# [27] = second compound 3.16 µM, first compound 0.316 µM
# [28] = second compound 3.16 µM, first compound 1 µM
# [29] = second compound 3.16 µM, first compound 3.16 µM
# [30] = second compound 3.16 µM, first compound 10 µM
# [31] = second compound 10 µM, first compound 0.0316 µM
# [32] = second compound 10 µM, first compound 0.1 µM
# [33] = second compound 10 µM, first compound 0.316 µM
# [34] = second compound 10 µM, first compound 1 µM
# [35] = second compound 10 µM, first compound 3.16 µM
# [36] = second compound 10 µM, first compound 10 µM
# 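Also: spheroids exposed to agents for seven days before readout.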
# 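For viability, T/C in this document: percent of vehicle control viability where 100% = DMSO wells.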
structure (smiles),measurement,setting,value
COc1cccc2c1C(=O)c1c(O)c3c(c(O)c1C2=O)CC(O)(C(=O)CO)CC3OC1CC(N)C(O)C(C)O1 (centres undefined) + Cc1[nH]c2ccc(F)cc2c1-c1nc2c3cccnc3c3ncccc3c2[nH]1,IC50,second compound 0.0316 µM,1970 nM
same,IC50,second compound 0.1 µM,2290 nM
same,IC50,second compound 0.316 µM,2490 nM
same,IC50,second compound 1 µM,2530 nM
same,IC50,second compound 3.16 µM,37.4 nM
same,IC50,second compound 10 µM,2000 nM
same,"viability, T/C",[1],104%
same,"viability, T/C",[2],98.8%
same,"viability, T/C",[3],92%
same,"viability, T/C",[4],71.8%
same,"viability, T/C",[5],34.8%
same,"viability, T/C",[6],5.27%
same,"viability, T/C",[7],119%
same,"viability, T/C",[8],99.5%
same,"viability, T/C",[9],89.2%
same,"viability, T/C",[10],74.7%
same,"viability, T/C",[11],41%
same,"viability, T/C",[12],2.4%
same,"viability, T/C",[13],91%
same,"viability, T/C",[14],96.2%
same,"viability, T/C",[15],86.6%
same,"viability, T/C",[16],64%
same,"viability, T/C",[17],47.8%
same,"viability, T/C",[18],2.12%
same,"viability, T/C",[19],78.2%
same,"viability, T/C",[20],69.3%
same,"viability, T/C",[21],71.5%
same,"viability, T/C",[22],61.2%
same,"viability, T/C",[23],49%
same,"viability, T/C",[24],1.09%
same,"viability, T/C",[25],52.8%
same,"viability, T/C",[26],43.5%
same,"viability, T/C",[27],29.2%
same,"viability, T/C",[28],26.4%
same,"viability, T/C",[29],22.5%
same,"viability, T/C",[30],0.94%
same,"viability, T/C",[31],73.3%
same,"viability, T/C",[32],64.9%
same,"viability, T/C",[33],58.6%
same,"viability, T/C",[34],69.5%
same,"viability, T/C",[35],39%
same,"viability, T/C",[36],1.06%
O=c1[nH]cc(F)c(=O)[nH]1 + CN(C)c1ccc(Nc2c3ccc(NC(=O)CCN4CCCC4)cc3nc3cc(NC(=O)CCN4CCCC4)ccc23)cc1,IC50,second compound 0.0316 µM,> 10000 nM
same,IC50,second compound 0.1 µM,> 10000 nM
same,IC50,second compound 0.316 µM,> 10000 nM
same,IC50,second compound 1 µM,> 10000 nM
same,IC50,second compound 3.16 µM,> 10000 nM
same,IC50,second compound 10 µM,> 10000 nM
same,"viability, T/C",[1],105%
same,"viability, T/C",[2],103%
same,"viability, T/C",[3],98.7%
same,"viability, T/C",[4],100%
same,"viability, T/C",[5],78%
same,"viability, T/C",[6],85.8%
same,"viability, T/C",[7],90.8%
same,"viability, T/C",[8],103%
same,"viability, T/C",[9],101%
same,"viability, T/C",[10],95.8%
same,"viability, T/C",[11],86.4%
same,"viability, T/C",[12],97.2%
same,"viability, T/C",[13],89%
same,"viability, T/C",[14],88.1%
same,"viability, T/C",[15],87.7%
same,"viability, T/C",[16],79.7%
same,"viability, T/C",[17],86.5%
same,"viability, T/C",[18],78.5%
same,"viability, T/C",[19],91.7%
same,"viability, T/C",[20],69.9%
same,"viability, T/C",[21],80.5%
same,"viability, T/C",[22],73.3%
same,"viability, T/C",[23],76.3%
same,"viability, T/C",[24],83.2%
same,"viability, T/C",[25],82.7%
same,"viability, T/C",[26],83.5%
same,"viability, T/C",[27],87.8%
same,"viability, T/C",[28],80.6%
same,"viability, T/C",[29],71.4%
same,"viability, T/C",[30],75.5%
same,"viability, T/C",[31],76%
same,"viability, T/C",[32],80%
same,"viability, T/C",[33],80.6%
same,"viability, T/C",[34],79%
same,"viability, T/C",[35],87.8%
same,"viability, T/C",[36],75%
